Data as given in patent US7781436B2 (Hoffmann-La Roche Inc., priority 2005, dated 2010).
Counter-ions that a name gives are not always drawn. Like-named read-outs stand apart in the source and are kept apart here.

Target: T1, human V1a receptor (Homo sapiens, UniProt P37288)
T1 construct: expressed in transfected cells; host or cells: HEK293 cells, transiently transfected; membranes prepared
Assay: human V1a receptor binding (3H-Vasopressin SPA, membranes of transfected HEK293 cells)
Experimental: The human V1a receptor was cloned by RT-PCR from total human liver RNA. The coding sequence was subcloned in an expression vector after sequencing to confirm the identity of the amplified sequence. […] Cell membranes were prepared from HEK293 cells transiently transfected with the expression vector and grown in 20 liter fermenters with the following protocol.
50 g of cells are resuspended in 30 ml freshly prepared ice cold Lysis buffer (50 mM HEPES, 1 mM EDTA, 10 mM MgCl2 adjusted to pH=7.4+ complete cocktail of protease inhibitor (Roche Diagnostics)). Homogenized with Polytron for 1 min and sonicated on ice for 2×2 minutes at 80% intensity (Vibracell sonicator). The preparation is centrifuged 20 min at 500 g at 4° C., the pellet is discarded and the supernatant centrifuged 1 hour at 43,000 g at 4° C. (19'000 rpm). The pellet is resuspended in 12.5 ml Lysis buffer+12.5 ml Sucrose 20% and homogenized using a Polytron for 1-2 min. The protein concentration is determined by the Bradford method, and aliquots are stored at −80° C. until use. For binding studies 60 mg Yttrium silicate SPA beads (Amersham) are mixed with an aliquot of membrane in binding buffer (50 mM Tris, 120 mM NaCl, 5 mM KCl, 2 mM CaCl2, 10 mM MgCl2) for 15 minutes with mixing. 50 ul of bead/membrane mixture is then added to each well of a 96 well plate, followed by 50 ul of 4 nM 3H-Vasopressin (American Radiolabeled Chemicals). For total binding measurement 100 ul of binding buffer are added to the respective wells, for non-specific binding 100 ul of […] cold vasopressin and for compound testing 100 ul of a serial dilution of each compound in 2% DMSO. The plate is incubated 1 h at room temperature, centrifuged 1 min at 1000 g and counted on a Packard Top-Count. Non-specific binding counts are subtracted from each well, and data is normalized to the maximum specific binding set at 100%. To calculate an IC 50 the curve is fitted using a non-linear regression model (XLfit) and the Ki is calculated using the Cheng-Prussoff equation.

[1] = displacement of 4 nM 3H-Vasopressin, HEK293 cell membranes, Ki by Cheng-Prussoff from IC50, read-out: Ki

T1 sequence (P37288 whole entry): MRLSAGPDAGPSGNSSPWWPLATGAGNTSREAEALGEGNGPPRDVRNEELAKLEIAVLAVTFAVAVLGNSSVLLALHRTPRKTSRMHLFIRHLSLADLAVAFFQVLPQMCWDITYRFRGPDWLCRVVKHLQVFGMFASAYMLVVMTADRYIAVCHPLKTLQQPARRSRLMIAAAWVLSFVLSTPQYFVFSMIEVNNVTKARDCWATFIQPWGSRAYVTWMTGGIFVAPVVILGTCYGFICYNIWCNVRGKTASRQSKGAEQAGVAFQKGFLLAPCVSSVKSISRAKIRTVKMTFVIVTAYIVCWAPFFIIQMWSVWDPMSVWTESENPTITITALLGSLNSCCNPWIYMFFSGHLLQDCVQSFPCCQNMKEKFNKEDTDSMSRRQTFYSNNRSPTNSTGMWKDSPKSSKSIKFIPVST

| Ki [1] | Compound | Ki |
| --- | --- | --- |
| 11 nM | CN(C)CCn1cc(C(=O)N2CCC(c3ccccc3F)CC2)c2ccc(Cl)cc21 [Example 115, [6-Chloro-1-(2-dimethylamino-ethyl)-1H-indol-3-yl]-[4-(2-fluoro-phenyl)-piperidin-1-yl]-methanone] |  |
| 6 nM | CN1CCN(C(=O)Cn2cc(C(=O)N3CCC(c4ccccc4F)CC3)c3ccc(Cl)cc32)CC1 [Example 117, 2-{6-Chloro-3-[4-(2-fluoro-phenyl)-piperidine-1-carbonyl]-indol-1-yl}-1-(4-methyl-piperazin-1-yl)-ethanone] |  |
| 12 nM | O=C(Cn1cc(C(=O)N2CCC(c3ccccc3F)CC2)c2ccc(Cl)cc21)N1CCNCC1 [Example 118, 2-{6-Chloro-3-[4-(2-fluoro-phenyl)-piperidine-1-carbonyl]-indol-1-yl}-1-piperazin-1-yl-ethanone hydrochloride] |  |
|  | CN(C)C(=O)Cn1cc(C(=O)N2CCC(c3ccncc3)CC2)c2ccc(Cl)cc21 [Example 122, 2-[6-Chloro-3-(3,4,5,6-tetrahydro-2H-[4,4′]bipyridinyl-1-carbonyl)-indol-1-yl]-N,N-dimethyl-acetamide] | 10 nM |
| 14 nM | COc1ccccc1N1CCN(C(=O)c2cn(CC(=O)N(C)C)c3cc(Cl)ccc23)CC1 [Example 151, 2-{6-Chloro-3-[4-(2-methoxy-phenyl)-piperazine-1-carbonyl]-indol-1-yl}-N,N-dimethyl-acetamide] |  |
| 14 nM | CCOc1ccccc1N1CCN(C(=O)c2cn(CC(=O)N(C)C)c3cc(Cl)ccc23)CC1 [Example 152, 2-{6-Chloro-3-[4-(2-ethoxy-phenyl)-piperazine-1-carbonyl]-indol-1-yl}-N,N-dimethyl-acetamide] |  |
|  | COc1ccccc1N1CCN(C(=O)c2cn(CC(=O)N3CCN(C)CC3)c3cc(Cl)ccc23)CC1 [Example 153, 2-{6-Chloro-3-[4-(2-methoxy-phenyl)-piperazine-1-carbonyl]-indol-1-yl}-1-(4-methyl-piperazin-1-yl)-ethanone] | 23 nM |
| 27 nM | CNC(=O)Cn1cc(C(=O)N2CCN(c3ccccc3OC)CC2)c2ccc(Cl)cc21 [Example 162, 2-{6-Chloro-3-[4-(2-methoxy-phenyl)-piperazine-1-carbonyl]-indol-1-yl}-N-methyl-acetamide] |  |
| 22 nM | COc1ccccc1N1CCN(C(=O)c2cn(CCN(C)C)c3cc(Cl)ccc23)CC1 [Example 163, [6-Chloro-1-(2-dimethylamino-ethyl)-1H-indol-3-yl]-[4-(2-methoxy-phenyl)-piperazin-1-yl]-methanone] |  |
| 7 nM | CN(C)CCn1cc(C(=O)N2CCN(c3ccccc3F)CC2)c2ccc(Cl)cc21 [Example 171, [6-Chloro-1-(2-dimethylamino-ethyl)-1H-indol-3-yl]-[4-(2-fluoro-phenyl)-piperazin-1-yl]-methanone] |  |
| 10 nM | CN1CCN(C(=O)Cn2cc(C(=O)N3CCN(c4ccccc4F)CC3)c3ccc(Cl)cc32)CC1 [Example 172, 2-{6-Chloro-3-[4-(2-fluoro-phenyl)-piperazine-1-carbonyl]-indol-1-yl}-1-(4-methyl-piperazin-1-yl)-ethanone] |  |
| 3 nM | CN(C)C(=O)Cn1cc(C(=O)N2CCN(c3ccccc3F)CC2)c2ccc(Cl)cc21 [Example 174, 2-{6-Chloro-3-[4-(2-fluoro-phenyl)-piperazine-1-carbonyl]-indol-1-yl}-N,N-dimethyl-acetamide] |  |
| 32 nM | NC(=O)Cn1cc(C(=O)N2CCN(c3ccccc3F)CC2)c2ccc(Cl)cc21 [Example 175, 2-{6-Chloro-3-[4-(2-fluoro-phenyl)-piperazine-1-carbonyl]-indol-1-yl}-acetamide] |  |
|  | CNC(=O)Cn1cc(C(=O)N2CCN(c3ccccc3F)CC2)c2ccc(Cl)cc21 [Example 176, 2-{6-Chloro-3-[4-(2-fluoro-phenyl)-piperazine-1-carbonyl]-indol-1-yl}-N-methyl-acetamide] | 8 nM |
| 8 nM | O=C(Cn1cc(C(=O)N2CCN(c3ccccc3F)CC2)c2ccc(Cl)cc21)N1CCNCC1 [Example 177, 2-{6-Chloro-3-[4-(2-fluoro-phenyl)-piperazine-1-carbonyl]-indol-1-yl}-1-piperazin-1-yl-ethanone] |  |
| 19 nM | CNC(=O)Cn1cc(C(=O)N2CCN(c3ccc(F)cc3F)CC2)c2ccc(Cl)cc21 [Example 190, 2-{6-Chloro-3-[4-(2,4-difluoro-phenyl)-piperazine-1-carbonyl]-indol-1-yl}-N-methyl-acetamide] |  |
| 26 nM | CNC(=O)Cn1cc(C(=O)N2CCN(c3ncccc3C(F)(F)F)CC2)c2ccc(Cl)cc21 [Example 196, 2-{6-Chloro-3-[4-(3-trifluoromethyl-pyridin-2-yl)-piperazine-1-carbonyl]-indol-1-yl}-N-methyl-acetamide] |  |
| 20 nM | C[C@H](N)Cn1cc(C(=O)N2CCN(c3ccccc3F)CC2)c2ccc(Cl)cc21 [Example 198, [1-((S)-2-Amino-propyl)-6-chloro-1H-indol-3-yl]-[4-(2-fluoro-phenyl)-piperazin-1-yl]-methanone] |  |
|  | O=C(c1cn(C[C@@H]2CCCN2)c2cc(Cl)ccc12)N1CCN(c2ccccc2F)CC1 [Example 200, (6-Chloro-1-(S)-1-pyrrolidin-2-ylmethyl-1H-indol-3-yl)-[4-(2-fluoro-phenyl)-piperazin-1-yl]-methanone] | 21 nM |
|  | CN1CCC[C@H]1Cn1cc(C(=O)N2CCN(c3ccccc3F)CC2)c2ccc(Cl)cc21 [Example 203, [6-Chloro-1-((S)-1-methyl-pyrrolidin-2-ylmethyl)-1H-indol-3-yl]-[4-(2-fluoro-phenyl)-piperazin-1-yl]-methanone] | 2 nM |
|  | CN(C)C(=O)Cn1cc(C(=O)N2CCN(c3ccc(F)cc3F)CC2)c2ccc(Cl)cc21 [Example 205, 2-{6-Chloro-3-[4-(2,4-difluoro-phenyl)-piperazine-1-carbonyl]-indol-1-yl}-N,N-dimethyl-acetamide] | 10 nM |
| 13 nM | CN(C)C(=O)Cn1cc(C(=O)N2CCN(c3ncccc3C(F)(F)F)CC2)c2ccc(Cl)cc21 [Example 211, 2-{6-Chloro-3-[4-(3-trifluoromethyl-pyridin-2-yl)-piperazine-1-carbonyl]-indol-1-yl}-N,N-dimethyl-acetamide] |  |
|  | O=C(c1cn(C[C@H]2CCCN2)c2cc(Cl)ccc12)N1CCN(c2ccccc2F)CC1 [Example 214, (6-Chloro-1-(R)-1-pyrrolidin-2-ylmethyl-1H-indol-3-yl)-[4-(2-fluoro-phenyl)-piperazin-1-yl]-methanone] | 16 nM |
|  | CN1CCC[C@@H]1Cn1cc(C(=O)N2CCN(c3ccccc3F)CC2)c2ccc(Cl)cc21 [Example 215, [6-Chloro-1-((R)-1-methyl-pyrrolidin-2-ylmethyl)-1H-indol-3-yl]-[4-(2-fluoro-phenyl)-piperazin-1-yl]-methanone] | 6 nM |
|  | CC(=O)NCCn1cc(C(=O)N2CCN(c3ccccc3F)CC2)c2ccc(Cl)cc21 [Example 217, N-(2-{6-Chloro-3-[4-(2-fluoro-phenyl)-piperazine-1-carbonyl]-indol-1-yl}-ethyl)-acetamide] | 21 nM |
| 16 nM | CS(=O)(=O)NCCn1cc(C(=O)N2CCN(c3ccccc3F)CC2)c2ccc(Cl)cc21 [Example 218, N-(2-{6-Chloro-3-[4-(2-fluoro-phenyl)-piperazine-1-carbonyl]-indol-1-yl}-ethyl)-methanesulfonamide] |  |
|  | CC(=O)N(C)CCn1cc(C(=O)N2CCN(c3ccccc3F)CC2)c2ccc(Cl)cc21 [Example 219, N-(2-{6-Chloro-3-[4-(2-fluoro-phenyl)-piperazine-1-carbonyl]-indol-1-yl}-ethyl)-N-methyl-acetamide] | 15 nM |
|  | CN(CCn1cc(C(=O)N2CCN(c3ccccc3F)CC2)c2ccc(Cl)cc21)S(C)(=O)=O [Example 220] | 17 nM |
|  | CNC(=O)Cn1cc(C(=O)N2CCN(c3nccc4sccc34)CC2)c2ccc(Cl)cc21 [Example 224, 2-[6-Chloro-3-(4-thieno[3,2-c]pyridin-4-yl-piperazine-1-carbonyl)-indol-1-yl]-N-methyl-acetamide] | 27 nM |
| 12 nM | CNC(=O)Cn1cc(C(=O)N2CCN(c3ncccc3I)CC2)c2ccc(Cl)cc21 [Example 225, 2-{6-Chloro-3-[4-(3-iodo-pyridin-2-yl)-piperazine-1-carbonyl]-indol-1-yl}-N-methyl-acetamide] |  |
